According to ChEMBL document CHEMBL1127680, “Specific inhibitors of ileal bile acid transport” (J Med Chem, 1994):

Experiments:
Assay type in all cases: functional
[1] = species: Oryctolagus cuniculus; assay: The compound was evaluated for the inhibition of Na+-dependent [3H]taurocholate uptake into ileal brush border membrane vesicles in rabbit; by 75%
[2] = species: Oryctolagus cuniculus; assay: The compound was evaluated for the inhibition of Na+-dependent [3H]taurocholate uptake into ileal brush border membrane vesicles in rabbit; by 50%
[3] = species: Oryctolagus cuniculus; assay: The compound was evaluated for the inhibition of Na+ dependent [3H]taurocholate uptake into ileal brush border membrane vesicles in rabbit; by 25%
[4] = tested on: Rattus norvegicus; assay: The compound was evaluated for the percentage inhibition of ileal taurocholate transport, in anesthetized wistar rats at 30 min
[5] = tested on: Rattus norvegicus; assay: The compound was evaluated for the percentage inhibition of ileal taurocholate transport; in anesthetized wistar rats at 12 min
[6] = tested on: Rattus norvegicus; assay: The compound was evaluated for the percentage inhibition of ileal taurocholate transport, in anesthetized wistar rats at 60 min
[7] = species: Oryctolagus cuniculus; assay: The compound was evaluated for the inhibition of Na+-dependent [3H]taurocholate uptake into ileal brush border membrane vesicles in rabbit, by 75%
[8] = species: Oryctolagus cuniculus; assay: The compound was evaluated for the inhibition of Na+-dependent [3H]taurocholate uptake into ileal brush border membrane vesicles in rabbit, by 50%
[9] = species: Oryctolagus cuniculus; assay: The compound was evaluated for the inhibition of Na+-dependent [3H]taurocholate uptake into ileal brush border membrane vesicles in rabbit, by 25%
[10] = tested on: Rattus norvegicus; assay: The compound was evaluated for the percentage inhibition of ileal taurocholate transport, in anesthetized wistar rats at 12 min

IC50 [8] | Structure (SMILES) | IC75 [1] | IC50 [2] | IC25 [3] | Inhibition [4] | Inhibition [5] | Inhibition [6] | IC75 [7] | IC25 [9] | Inhibition [10]
48 µM | CC(CCC(=O)N[C@H]1CC[C@@]2(C)[C@@H](C1)C[C@@H](O)[C@@H]1[C@@H]2C[C@H](O)[C@]2(C)C(C(C)CCC(=O)O)CC[C@@H]12)C1CC[C@H]2[C@@H]3[C@H](O)C[C@@H]4C[C@H](O)CC[C@]4(C)[C@H]3C[C@H](O)[C@]12C (stereo partly specified) |  |  |  | 59% |  | 54% | 84 µM | 24 µM | 51%
> 250 µM | CC(CCC(=O)O)C1CC[C@H]2[C@@H]3[C@H](O)C[C@@H]4C[C@@H](NC(=O)CCC(C)C5CC[C@H]6[C@@H]7CC[C@@H]8C[C@H](O)CC[C@]8(C)[C@H]7CC[C@]56C)CC[C@]4(C)[C@H]3C[C@H](O)[C@]12C (stereo partly specified) |  |  |  |  |  |  | > 250 µM | 176 µM | 
> 250 µM | CC(CCC(=O)O)C1CC[C@H]2[C@@H]3[C@H](O)C[C@@H]4C[C@@H](OCCNC(=O)CCC(C)C5CC[C@H]6[C@@H]7CC[C@@H]8C[C@H](O)CC[C@]8(C)[C@H]7CC[C@]56C)CC[C@]4(C)[C@H]3C[C@H](O)[C@]12C (stereo partly specified) |  |  |  |  |  |  | > 250 µM | 154 µM | 
> 250 µM | CC(CCC(=O)O)C1CC[C@H]2[C@@H]3[C@H](O)C[C@@H]4C[C@@H](OCCNC(=O)CCC(C)C5CC[C@H]6[C@@H]7[C@H](O)C[C@@H]8C[C@H](OC(c9ccccc9)c9ccccc9)CC[C@]8(C)[C@H]7C[C@H](O)[C@]56C)CC[C@]4(C)[C@H]3C[C@H](O)[C@]12C (stereo partly specified) |  |  |  |  |  |  | > 250 µM | 125 µM | 

Second part, the compound before the results:

Structure (SMILES) | IC50 [8] | IC75 [1] | IC50 [2] | IC25 [3] | Inhibition [4] | Inhibition [5] | Inhibition [6] | IC75 [7] | IC25 [9] | Inhibition [10]
CC(CCC(=O)NCCO[C@H]1CC[C@@]2(C)[C@@H](C1)C[C@@H](O)[C@@H]1[C@@H]2C[C@H](O)[C@]2(C)C(C(C)CCC(=O)O)CC[C@@H]12)C1CC[C@H]2[C@@H]3[C@H](O)C[C@@H]4C[C@H](O)CC[C@]4(C)[C@H]3C[C@H](O)[C@]12C (stereo partly specified) |  | 57 µM | 36 µM | 20 µM | 23% | 23% | 18% |  |  | 
C[C@H](CCC(=O)NCCS(=O)(=O)O)[C@H]1CC[C@H]2[C@@H]3[C@H](O)C[C@@H]4C[C@H](O)CC[C@]4(C)[C@H]3CC[C@]12C |  |  |  |  |  |  |  | 61 µM | 13 µM | 
C[C@H](CCC(=O)O)[C@H]1CC[C@H]2[C@@H]3[C@H](O)C[C@@H]4C[C@H](O)CC[C@]4(C)[C@H]3C[C@H](O)[C@]12C |  |  |  |  |  |  |  | 152 µM | 40 µM | 
CC(CCC(=O)O)C1CC[C@H]2[C@@H]3[C@H](O)C[C@@H]4C[C@@H](OCCNC(=O)CCC(=O)NCCCNC(=O)CCC(C)C5CC[C@H]6[C@@H]7[C@H](O)C[C@@H]8C[C@H](OC(c9ccccc9)c9ccccc9)CC[C@]8(C)[C@H]7C[C@H](O)[C@]56C)CC[C@]4(C)[C@H]3C[C@H](O)[C@]12C (stereo partly specified) | 19 µM |  |  |  | 16% |  | 10% | 30 µM | 9 µM | 26%
